Measurements reported in article PMC3172044 (Biopharmaceutics & drug disposition, 2010).

Experiments:
CYP2C19 = conditions: cited from earlier work
human liver microsomes [1] = assay: Chemical inhibition of GLB metabolite formation in human liver microsomes; conditions: GLB 1.25 μM; for effect on the formation of any of the four metabolites (M1, M2b, M4, M5): SUL […], QUI 0.45 μM, TTEPA 20 μM
human liver microsomes [2] = system: human liver microsomes
[3] = cited from earlier work
[4] = cited from earlier work; remark: listed apart in the source
[5] = read-out: apparent Km values for GLB metabolism; cited from earlier work
CYP3A = conditions: cited from earlier work
[6] = substrate: COc1ccc(Cl)cc1C(=O)NCCc1ccc(S(=O)(=O)NC(=O)NC2CCCCC2)cc1; assay: cells, lysate or membranes named; conditions: substrate depletion, 37.0 °C
[7] = 4 μM montelukast, no inhibitor = 100%
[8] = value stated to be within the range
[9] = 1 μM ketoconazole, no inhibitor = 100%
[10] = other: CYP3A5 supersomes 30 pmol/ml
[11] = other: CYP2C19 supersomes 30 pmol/ml
[12] = other: CYP2C8 supersomes 40 pmol/ml

## COc1ccc2[nH]c([S+]([O-])Cc3ncc(C)c(OC)c3C)nc2c1 (stereo not drawn) [omeprazole]
CYP2C19
  Ki: 3000 nM

## C=C[C@H]1C[N@@]2CC[C@H]1C[C@@H]2[C@@H](O)c1ccnc2ccc(OC)cc12 [quinidine]
Human liver microsomes [1]
  effect on the formation of any of the four metabolites (M1, M2b, M4, M5): no significant effects

## COc1ccc(Cl)cc1C(=O)NCCc1ccc(S(=O)(=O)NC(=O)N[C@H]2CC[C@H](O)CC2)cc1 [M1, 4-trans-hydroxycyclohexyl glyburide]
Human liver microsomes [2]
  peak area of metabolite as % of that of M5: approximately 56%
[3]
  pharmacological activity: pharmacologically active

## CC(C)(O)c1ccccc1CC[C@@H](SCC1(CC(=O)O)CC1)c1cccc(/C=C/c2ccc3ccc(Cl)cc3n2)c1 [montelukast]
Human liver microsomes [1]; [7]
  formation of M1, % of the controls: approximately 50%
  formation of M4, % of the controls: ~65%

## Nc1ccc(S(=O)(=O)Nc2ccnn2-c2ccccc2)cc1 [Sulfaphenazole, sulfaphenazole]
Human liver microsomes [1]
  effect on the formation of any of the four metabolites (M1, M2b, M4, M5): no significant effects

## COc1ccc(Cl)cc1C(=O)NCCc1ccc(S(=O)(=O)NC(=O)NC2CCCCC2)cc1 [glyburide, Glyburide]
[4]; after a single oral dose of 20 mg GLB
  peak plasma concentration: approximately 1.25 μM
[4]; [8]
  free therapeutic plasma concentration: approximately 1.25 nM
  total therapeutic plasma concentration: ~0.125 µM
[5]
  Km: 5 to 11 µM

## CC(=O)N1CCN(c2ccc(OCC3COC(Cn4ccnc4)(c4ccc(Cl)cc4Cl)O3)cc2)CC1 (stereo not drawn) [ketoconazole]
Human liver microsomes [1]; [9]
  formation of M1, % of the controls: approximately 60%
  formation of M4, % of the controls: ~5%
  formation of M5, % of the controls: ~4%
CYP3A
  Ki: […]

## COc1ccc(Cl)cc1C(=O)NCCc1ccc(S(=O)(=O)NC(=O)N[C@H]2CCC[C@@H](O)C2)cc1 (relative stereo) [M2b, 3-cis-hydroxycyclohexyl glyburide (axial)]
Human liver microsomes [2]
  peak area of metabolite as % of that of M5: ~43%
[3]
  pharmacological activity: pharmacologically active

## S=P(N1CC1)(N1CC1)N1CC1 [thioTEPA, triethylenethiophosphoramide]
Human liver microsomes [1]
  effect on the formation of any of the four metabolites (M1, M2b, M4, M5): no significant effects

## COc1ccc(Cl)cc1C(=O)NCCc1ccc(S(=O)(=O)NC(=O)N[C@@H]2CCCC[C@H]2O)cc1 (relative stereo) [M4, 2-trans-hydroxycyclohexyl glyburide]
Human liver microsomes [2]
  peak area of metabolite as % of that of M5: ~8%

## COc1ccc(Cl)cc1C(=O)NCCc1ccc(S(=O)(=O)NC(=O)NC2CCCC(O)C2)cc1 (stereo not drawn) [M3, 3-trans-hydroxycyclohexyl glyburide]
Human liver microsomes [2]
  peak area of metabolite as % of that of M5: ~16%

## an ethyl hydroxycyclohexyl glyburide [M5]
Human liver microsomes [2]
  relative metabolite formation in human liver microsome incubations: major metabolite formed

B1: human CYP3A5 (Homo sapiens) (protein)
chain: MDLIPNLAVETWLLLAVSLVLLYLYGTRTHGLFKRLGIPGPTPLPLLGNVLSYRQGLWKFDTECYKKYGKMWGTYEGQLPVLAITDPDVIRTVLVKECYSVFTNRRSLGPVGFMKSAISLAEDEEWKRIRSLLSPTFTSGKLKEMFPIIAQYGDVLVRNLRREAEKGKPVTLKDIFGAYSMDVITGTSFGVNIDSLNNPQDPFVESTKKFLKFGFLDPLFLSIILFPFLTPVFEALNVSLFPKDTINFLSKSVNRMKKSRLNDKQKHRLDFLQLMIDSQNSKETESHKALSDLELAAQSIIFIFAGYETTSSVLSFTLYELATHPDVQQKLQKEIDAVLPNKAPPTYDAVVQMEYLDMVVNETLRLFPVAIRLERTCKKDVEINGVFIPKGSMVVIPTYALHHDPKYWTEPEEFRPERFSKKKDSIDPYIYTPFGTGPRNCIGMRFALMNMKLALIRVLQNFSFKPCKETQIPLKLDTQGLLQPEKPIVLKVDSRDGTLSGE
[6]; [10]
  Km: 4.2 ± 1.5 µM
  kcat: 0.0317 ± 0.0122 s⁻¹
  kcat/Km: 7670 ± 833 M⁻¹ s⁻¹

B2: human CYP2C19 (Homo sapiens) (protein)
chain: MDPFVVLVLCLSCLLLLSIWRQSSGRGKLPPGPTPLPVIGNILQIDIKDVSKSLTNLSKIYGPVFTLYFGLERMVVLHGYEVVKEALIDLGEEFSGRGHFPLAERANRGFGIVFSNGKRWKEIRRFSLMTLRNFGMGKRSIEDRVQEEARCLVEELRKTKASPCDPTFILGCAPCNVICSIIFQKRFDYKDQQFLNLMEKLNENIRIVSTPWIQICNNFPTIIDYFPGTHNKLLKNLAFMESDILEKVKEHQESMDINNPRDFIDCFLIKMEKEKQNQQSEFTIENLVITAADLLGAGTETTSTTLRYALLLLLKHPEVTAKVQEEIERVIGRNRSPCMQDRGHMPYTDAVVHEVQRYIDLIPTSLPHAVTCDVKFRNYLIPKGTTILTSLTSVLHDNKEFPNPEMFDPRHFLDEGGNFKKSNYFMPFSAGKRICVGEGLARMELFLFLTFILQNFNLKSLIDPKDLDTTPVVNGFASVPPFYQLCFIPV
[6]; [11]
  Km: 15.1 ± 2.3 µM
  kcat: 0.16 ± 0.025 s⁻¹
  kcat/Km: 10500 ± 333 M⁻¹ s⁻¹

B3: human CYP2C8 (Homo sapiens) (protein)
chain: MEPFVVLVLCLSFMLLFSLWRQSCRRRKLPPGPTPLPIIGNMLQIDVKDICKSFTNFSKVYGPVFTVYFGMNPIVVFHGYEAVKEALIDNGEEFSGRGNSPISQRITKGLGIISSNGKRWKEIRRFSLTTLRNFGMGKRSIEDRVQEEAHCLVEELRKTKASPCDPTFILGCAPCNVICSVVFQKRFDYKDQNFLTLMKRFNENFRILNSPWIQVCNNFPLLIDCFPGTHNKVLKNVALTRSYIREKVKEHQASLDVNNPRDFIDCFLIKMEQEKDNQKSEFNIENLVGTVADLFVAGTETTSTTLRYGLLLLLKHPEVTAKVQEEIDHVIGRHRSPCMQDRSHMPYTDAVVHEIQRYSDLVPTGVPHAVTTDTKFRNYLIPKGTTIMALLTSVLHDDKEFPNPNIFDPGHFLDKNGNFKKSDYFMPFSAGKRICAGEGLARMELFLFLTTILQNFNLKSVDDLKNLNTTAVTKGIVSLPPSYQICFIPV
[6]; [12]
  Km: 7.7 ± 2.3 µM
  kcat: 0.0417 ± 0.0133 s⁻¹
  kcat/Km: 5330 ± 500 M⁻¹ s⁻¹
